Experimental data published in patent US7396524B2, “Methods for screening compounds for proarrhythmic risk and antiarrhythmic efficacy” (Main Line Health Heart Center, priority 2005, dated 2008).
Read-outs that look alike come from different tables or passages of the source.

Experiments:
[1] = tested on: rabbit left ventricular wedge preparations and single rabbit ventricular myocytes
[2] = cited from earlier work
[3] = tested on: Purkinje fiber; conditions: cited from earlier work
[4] = experimental data; cited from earlier work
[5] = tested on: L-type calcium channel current (ICa,L); assay: Ratio of ICa,L recovery time constant (whole-cell voltage clamp, double-pulse protocol) to endocardial APD90; type: cell-based; conditions: 30 μM; control ratio 0.448; rabbit
Protocol: Single rabbit ventricular myocytes were isolated using the enzymatic digestion method as described in Rials et al., Circulation 1997; 96:1330-1336. The rabbit heart was initially perfused with 500 ml Ca^2+-free solution (in mM: NaCl 125, KCl 3.5, KH2PO4 1.5, MgCl2 1, NaHCO3 20, glucose 10) gassed with 95% O2-5% CO2 at 37° C. at a rate of 30 ml/min with a peristaltic pump. The heart was then perfused with 80 ml enzyme solution (48 mg collagenase (type II), 12 mg hyaluronidase, 80 mg BSA, and 300 mg taurine to the Ca^2+-free solution). The enzyme solution passed through the heart a single time before 40 ml, and recirculation after 40 ml. […]
ICa,L was recorded in rabbit single ventricular myocytes at 35.7±0.1° C. using the whole-cell voltage-clamp technique as described by Linz and Meyer, Pflugers Arch. […]
The action potentials were first recorded from the endocardium of the rabbit left ventricular wedge preparation at a basic cycle length of 2000 ms before and after exposure to a test compound. […]
The ratio of ICa,L recovery time constant to endocardial APD90 under control and after exposure to one of the test compounds described above was determined as follows: the ratio equals τ(ms)/APD90 (ms). The relative TdP risk score was then calculated based on the change in the QT interval and the ratio according to the criteria listed in Table 1. […]

[6] = tested on: rabbit left ventricular wedge preparations; assay: Rabbit left ventricular wedge preparation: endocardial APD90, EAD and TdP
Protocol: Female rabbits weighting 2.5-3 kg were anticoagulated with heparin and anesthetized with pentobarbital (30-35 mg/kg, i.v.). The chest was opened via a left thoracotomy, and the heart was excised and placed in a cardioplegic solution consisting of cold (4° C.) normal Tyrode's solution. Transmural wedges with dimensions of approximately 1.5 cm wide and 2-3 cm long were dissected from the left ventricle. The wedge tissue was cannulated via the circumflex or left main artery and perfused with cardioplegic solution. The preparation was then placed in a small tissue bath and arterially perfused with Tyrode's solution containing 4 mM K^+ buffered with 95% O2 and 5% CO2 (T: 35.7±0.1° C., perfusion pressure: 35-45 mmHg). The ventricular wedge was allowed to equilibrate in the tissue bath until electrically stable, approximately one hour. The preparations were stimulated at basic cycle lengths (BCL) of 1000 and 2000 ms using bipolar silver electrodes insulated except at the tips and applied to the endocardial surface.
A transmural ECG signal was recorded in all experiments using extracellular silver/silver chloride electrodes placed in the Tyrode's solution bathing the preparation. Electrodes were placed 1.0 to 1.5 cm from the epicardial and endocardial surfaces, along the same vector as the transmembrane recordings (Epi: “+” pole). The QT interval was defined as the time from the onset of the QRS to the point at which the final downslope of the T wave crosses the isoelectric line. Transmembrane action potentials were recorded simultaneously from epicardial and endocardial sites of the rabbit left ventricular wedge preparations. The action potential duration was measured at 90% repolarization (APD90).

SMILES	Maximal TdP Score ([1]; 20 min)	maximal TdP score in the testing concentration range ([1]; 20 min)	also measured
CN(C)CCCC1(c2ccc(F)cc2)OCc2cc(C#N)ccc21 (stereo not shown) [citalopram]	1.3 ± 0.2	1.25±0.22	–
CCCCc1oc2ccccc2c1C(=O)c1cc(I)c(OCCN(CC)CC)c(I)c1 [amiodarone]	–	–	TdP risk in humans [2]: rarely causes TdP
CC(C)COCC(CN(Cc1ccccc1)c1ccccc1)N1CCCC1 (stereo not shown) [bepridil]	7.5 ± 0.3	7.50±0.26	increase in the action potential duration of the Purkinje fiber [3]: have not been shown to produce a significant increase; increase in the QT interval [4]: fails to produce a significant increase; TdP risk in humans [2]: known to cause TdP in humans
CNCCC(Oc1ccc(C(F)(F)F)cc1)c1ccccc1 (stereo not shown) [fluxetine]	–	–	maximal TdP score in the testing concentration range ([1]; Table 1 criteria, means ±SEM, text and FIG. 7 legend): 0.00±0.00; Maximal TdP Score ([1]; Table 2, Table 1 criteria, means ±SEM): 0.0 ± 0.0
O=C(NCC1CCCCN1)c1cc(OCC(F)(F)F)ccc1OCC(F)(F)F (stereo not shown) [flecainide]	1.3 ± 0.2	1.25±0.22	–
CN(CCOc1ccc(NS(C)(=O)=O)cc1)CCc1ccc(NS(C)(=O)=O)cc1 [dofetilide]	–	–	increase in rabbit endocardial APD90 ([6]; dofetilide 0.003 μM vs control, n=8): 76%; development of EAD (preparations) ([6]; dofetilide 0.003 μM, rabbit left ventricular wedge preparations): seven of eight; TdP (rabbits) ([6]; dofetilide 0.01 μM): all of eight; rabbit endocardial APD90 ([6]; female, rabbit, 0.003 μM): 443 ± 27 ms

Now from value to compound, other results behind:

Maximal TdP Score ([1]; 20 min)	maximal TdP score in the testing concentration range ([1]; 20 min)	SMILES	also measured
4.2 ± 0.6	4.20±0.58	O=C(CCCN1CCC(O)(c2ccc(Cl)cc2)CC1)c1ccc(F)cc1 [haloperidol]	–
10.0 ± 0.0	10.00±0.00	CC(C)NCC(O)c1ccc(NS(C)(=O)=O)cc1 (stereo not shown) [sotalol]	ratio of ICa,L recovery time constant (τ) to endocardial APD90 [5]: 0.325
11.8 ± 0.2	11.75±0.22	C=C[C@H]1C[N@@]2CC[C@H]1C[C@@H]2[C@@H](O)c1ccnc2ccc(OC)cc12 [quinidine]	–
4.0 ± 0.0	4.00±0.00	COc1c(N2C[C@@H]3CCCN[C@@H]3C2)c(F)cc2c(=O)c(C(=O)O)cn(C3CC3)c12 [moxifloxacin]	–
